The values that follow come from patent publication US20180289666A1, “FLAVONOLIGNANS FOR TREATMENT OF AUTOIMMUNE INFLAMMATORY DISEASES” (Macau University of Science and Technology, priority 2017, published 2018).

Data set [1] deals with AIA rats. Briefly: Assessment of liver abnormality and lipid profile in AIA model. The class given is in vivo, Sprague-Dawley (SD) rats. The method, then: Serum ALT, AST, ALP, GGT and total bilirubin were measured by automatic biochemical analyzer (Toshiba Corporation, Tokyo, Japan). Lipids profile including TG, TC, HDL-C, LDL-C/vLDL-C and free fatty acids were measured in the serum. After animals were sacrificed, tissues of liver were fixed in 10% formalin solution, cleared in xylene, embedded in paraffin blocks from which 5 micron-thick sections were obtained. Sections were stained with H&E dye and examined for pathological changes under light microscope by a pathologist blind to the specimens.

The subject of data set [2] is AIA rats. Briefly: Plasma metabolomics by LC-MS/MS in AIA rats. The class given is in vivo, Sprague-Dawley (SD) rats. How it is done:
The plasma sample (200 μL) was thawed on ice for 5 min prior to sample preparation and was mixed with 200 μL of 10 mM N-ethylmaleimide (NEM) in PBS buffer solution and 1000 μL of methanol containing internal standard (I.S.) Phe-d5 in 10 ng/ml. This mixture was incubated at −20° C. for 20 min, and then centrifuged at 12000 rpm for 10 min at 4° C. The supernatant was completely dried under nitrogen flow (Pressure Blowing Concentrator, Tokyo Rikakika, Tokyo, Japan) and reconstituted with distilled water.
LC-MS/MS analysis was performed on A Waters ACQUITY UPLC coupled with a 4000 Q-TRAP mass spectrometer. Chromatographic separation was carried on a Waters X Bridge™ BEH C18 analytical column (2.5 μm, 3.0×100 mm; Waters, Torrance, Calif.) with a mobile phase composed of 0.1% formic acid water (solvent A) and methanol (solvent B) which was running in a gradient program: 0-3.0 min (0%-1% B); 3.0-10.0 min (1-3% B); 10.0-14.0 min (3-50% B); 14.0-18.0 min (50-95% B); 18.0-22.0 min (95-0% B); followed by a 3-min re-equilibration step. The injection volume was 10 μl at 4° C. and flow rate was 0.6 ml/min. Electrospray (ESI) source were used in both positive and negative ion mode. […]
The normalized data were exported and further processed by PCA and PLS-DA using a multivariate analysis package SIMCA-P software (Umea, Sweden). Model quality was evaluated based on the relevant values of R^2 and Q^2. […]

Data set [3] concerns AIA rats. Conditions: AIA rats; MTX alone; versus vehicle-treated AIA rats.
Data set [4] deals with AIA rats. The experiment in a line: Radiological and histopathological examination of hind paws / ankle joints of AIA rats. It is filed as in vivo, Sprague-Dawley (SD) rats. How it is done:
Disease severity and progression were evaluated by measurements of both hind paw volumes with a plethysmometer chamber (Yiyan technology, Jinan, China) and body weight with a 0.1 g precision balance (Sartorius AG, Göttingen, Germany) every two or three days after arthritis induction. For evaluation the arthritic scoring, the lesions of four paws of each rat (i.e., the arthritic signs) were graded by two separate investigators with a semi-quantitative scale: 0 (normal), 4-8 (mild changes), 8-12 (moderate changes), and 12-16 (severe changes) (van Eden W., et. al., J. E. Coligan, Editor. 2001, John Wiley: New York. p. 1-11). Erythrocyte sedimentation rate (ESR) was determined with ICSH (International Council for Standardization in Hematology) selected method with little modifications at day 42. Briefly, 120 μl of blood sample was taken directly and put into 30 μl of 0.109 mol/L sodium citrate, mixed well, and then transferred into a 1.0 mm×100 mm capillary tube (West China Medical University, ChengDu, China). The tubes were held obliquely at an angle of […] and the erythrocyte sedimentation rate was recorded at 15 min. The cytokines levels including IL-1β, TNF-α, IL-17, IL-33, MMP-9, TIMP-1 and PGE2 in serum were measured using commercially available ELISA kits according to the manufacturers instructions. At the end of the experiments, rat knee images were measured (mean of three readings per knee, Meinaite digital calliper, ShangHai, China) using a IVIS Lumina XRMS Series (PerkinElmer, America) (Esser, R. E., et al., Arthritis Rheum, 1995, 38(1): p. 129-38).
For histopathological assessment, arthritic paws were collected on day 42 after X-ray check, fixed with 10% phosphate buffered saline (PBS) buffered formalin, and decalcified for 3 days in formic acid. Sections from paraffin-embedded tissue were stained with hematoxylin and eosin (H&E). The obtained plasma was stored in −70° C. for metabolomic studies. The relative organ weight ratios (such as liver index, spleen index, kidney index, lung index) were calculated by dividing the weight of each organ with the body weight.

Data set [5] relates to key enzymes involved in lipid metabolism in liver. The experiment in a line: Real-time PCR and Western blot of lipid metabolism enzymes in liver of AIA rats. It is filed as in vivo, Sprague-Dawley (SD) rats. Conditions: AIA rats liver. How it is done: Total RNA was isolated from the frozen liver of the AIA model using TRIzol® Reagent (Life technology, USA). mRNA was purified by binding to poly(dT) magnetic beads using Dynabeads® mRNA DIRECT™ Kit (Life technology, Norway) and reverse transcribed using SuperScript® III reverse transcriptase (Invitrogen, California, USA) as described by the manufacturer. Quantitative real-time PCR was performed using SYBR Green (Sigma-Aldrich, Louis, USA) on the ViiA™ 7 Real-Time PCR System (Applied Biosystems, FosterCity, USA). Quantitative RT-PCR analysis was performed using SYBR Green reagents and ViiA™ 7 Real-Time PCR System. Gene expression levels were calculated from cycle threshold (Ct) values and normalized with control gene GAPDH.
Liver tissue homogenates of AIA and MCD animal models were lysed in RIPA buffer (50 mM pH 7.4 Tris, 150 mM NaCl, 1% Triton X-100, 1% sodium deoxycholate, 0.1% SDS, sodium orthovanadate, sodium fluoride and EDTA) containing protease inhibitor cocktails (Roche Life Science, USA). Protein concentration was determined using the BCA protein assay kit (BIO-RAD, USA). Equal amounts of total protein were resolved using SDS-PAGE and transferred onto PVDF membranes (Millipore, Darmstadt, Germany). After incubation in a blocking solution containing with 5% (w/v) skim milk (Nestle Carnation, New Zealand) in TBST buffer (10 mM tris-buffered saline and 0.1% Tween20) for 1 h at room temperature and incubated with primary antibodies overnight at 4° C. The membranes were washed three times with 1×TBST solutions and incubated with the appropriate secondary antibodies at room temperature for 45 min, and subsequently visualized with an enhanced chemiluminescence detection kit (SuperSignal™ West Pico Chemiluminescent Substrate, Thermo Scientific, USA). β-actin was used as the loading control for the experimental data analysis.

In the case of `CN(Cc1cnc2nc(N)nc(N)c2n1)c1ccc(C(=O)N[C@@H](CCC(=O)O)C(=O)O)cc1` [MTX, methotrexate, reference compound], the “histopathological assessment of liver tissue” value in the data set with AIA rats [1] (H&E liver sections) was “congested portal tract and mild fatty changes with lipid drop lets”. Besides, in the data set on AIA rats [1] (MTX), the “dyslipidemia (serum lipid profile)” value is “successfully improved”. In the data set with AIA rats [1] (methotrexate alone, 42 days), the ALT serum level entry is “significant increase” and the GGT serum level entry is “significant increase”. Moreover, the “metabolic network (plasma metabolites)” value in the data set on AIA rats [2] is “effectively repair the metabolic network”. In the data set on AIA rats [3], the “changes in arthritis score” value is “significantly (p<0.001) ameliorated” and the “changes in paw volume” value is “significantly (p<0.001) ameliorated”. In the data set with AIA rats [4] (MTX, day 42), the “cartilage and joint destruction of the arthritic joints (radiographs)” value was “ameliorated”. In the data set with AIA rats [4] (ankle joint sections, H&E), the “infiltration of inflammatory cells, synovial hyperplasia” value was “diminished”. The “histological grade of representative ankle joint sections” value in the data set on AIA rats [4] (day 42, H&E, FIG. 2C (MTX; Silybin 200 mg/kg), vehicle-treated AIA grade 2/3) was determined as 0. For the same molecule, in data set [5], the “expression of aP2 in the liver” value is “reduced”; the “mRNA and/or protein expression of LPL, CYP7A1, and SREBP1 in liver” value is “greatly repressed”; the “overexpression of SREBP1” value was “not modulated”. Also, the “increased mRNA levels of hepatic lipogenesis genes (SREBP1, LXR, FXR)” value in data set [5] (real-time PCR) was “attenuated”. The “changes of key lipogenic enzyme in both gene and protein levels” value in data set [5] (real-time PCR and Western blot) was “ameliorated changes”.
